Our source for the IC50 values is patent publication US10906889B2, “Polycyclic inhibitors of cyclin-dependent kinase 7 (CDK7)” (Dana-Farber Cancer Institute, Inc., priority 2013, dated 2021).

SMILES strings stand for the structures. Where two headings read alike, the source gives them in different places.

The target in one experiment is T1, CDK7 (Homo sapiens, UniProt P50613).
T1 construct: purchased Life Technologies (assay service)
Put plainly: Adapta kinase assay (Life Technologies), CDK7. The format is biochemical.

Another experiment concerns Jurkat cells. Kind of experiment: Cell proliferation (CellTiter-Glo, 72 hour), Jurkat. Conditions: Homo sapiens, blood cancer cell line. Format: cell-based. Background: ATP-based viability assays read luminescence as a measure of living cells.
In another experiment the target is CDK5/p25 (Homo sapiens, UniProt Q00535). Put plainly: Z'-Lyte kinase assay (Life Technologies), CDK5/p25.
The target in a further experiment is T2, MLK3 (Homo sapiens, UniProt Q16584).
T2 construct: purchased Life Technologies (assay service)
Put plainly: LanthaScreen Eu kinase assay (Life Technologies), MLK3. The following applies: Table 2; read-out: MLK3 (calculated IC50). Format: binding.

The mark [1] stands for this setting: Table 1C, co-factors cyclin H and MNAT1, read-out: CDK7 IC50.
Where [2] appears, read: Table 2, co-factors cyclin H and MNAT1, read-out: CDK7 (calculated IC50).

T1 sequence (P50613 whole entry): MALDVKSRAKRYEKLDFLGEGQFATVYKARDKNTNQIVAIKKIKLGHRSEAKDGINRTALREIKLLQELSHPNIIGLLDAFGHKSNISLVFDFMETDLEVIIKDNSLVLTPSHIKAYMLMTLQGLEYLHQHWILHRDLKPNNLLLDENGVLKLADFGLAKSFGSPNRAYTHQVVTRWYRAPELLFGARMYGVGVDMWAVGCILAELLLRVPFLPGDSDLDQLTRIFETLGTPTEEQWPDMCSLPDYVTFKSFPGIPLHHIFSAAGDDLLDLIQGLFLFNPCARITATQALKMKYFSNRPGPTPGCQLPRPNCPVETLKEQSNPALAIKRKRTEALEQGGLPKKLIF
T1 sequence (P51946 whole entry partner): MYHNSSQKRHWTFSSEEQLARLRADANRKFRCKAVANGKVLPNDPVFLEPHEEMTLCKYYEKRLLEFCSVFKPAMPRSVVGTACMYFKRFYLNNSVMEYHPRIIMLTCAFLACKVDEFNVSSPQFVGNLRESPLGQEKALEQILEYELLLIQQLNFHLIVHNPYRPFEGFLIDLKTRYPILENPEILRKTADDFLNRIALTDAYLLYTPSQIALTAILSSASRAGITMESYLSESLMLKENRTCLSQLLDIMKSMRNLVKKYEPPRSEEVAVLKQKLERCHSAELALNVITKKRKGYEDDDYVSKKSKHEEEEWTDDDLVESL
T1 sequence (P51948 whole entry partner): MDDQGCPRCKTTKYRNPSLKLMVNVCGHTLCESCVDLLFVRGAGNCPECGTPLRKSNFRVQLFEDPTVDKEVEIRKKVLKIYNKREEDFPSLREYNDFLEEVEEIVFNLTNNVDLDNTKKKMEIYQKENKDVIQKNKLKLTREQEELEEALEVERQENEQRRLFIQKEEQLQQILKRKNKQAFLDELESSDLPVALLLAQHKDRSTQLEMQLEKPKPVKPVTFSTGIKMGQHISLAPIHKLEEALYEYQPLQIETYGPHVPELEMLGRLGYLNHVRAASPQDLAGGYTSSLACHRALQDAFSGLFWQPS
CDK5/p25, sequence (Q00535 whole entry): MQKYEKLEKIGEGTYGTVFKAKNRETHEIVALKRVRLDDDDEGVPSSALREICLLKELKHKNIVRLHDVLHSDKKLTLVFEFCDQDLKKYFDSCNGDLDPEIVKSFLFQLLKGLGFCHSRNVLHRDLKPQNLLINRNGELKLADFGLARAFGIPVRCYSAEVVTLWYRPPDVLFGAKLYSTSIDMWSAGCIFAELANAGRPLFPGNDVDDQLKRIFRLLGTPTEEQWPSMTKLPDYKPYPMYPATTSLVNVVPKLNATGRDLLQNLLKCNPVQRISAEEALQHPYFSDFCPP
CDK5/p25, sequence (Q15078 99-307 partner limits assumed): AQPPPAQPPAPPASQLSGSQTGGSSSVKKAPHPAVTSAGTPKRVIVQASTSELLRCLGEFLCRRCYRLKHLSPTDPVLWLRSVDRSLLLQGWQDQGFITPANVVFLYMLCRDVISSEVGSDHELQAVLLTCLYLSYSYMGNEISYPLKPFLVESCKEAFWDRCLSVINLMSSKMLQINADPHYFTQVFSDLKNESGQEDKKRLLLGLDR
T2 sequence (Q16584 whole entry): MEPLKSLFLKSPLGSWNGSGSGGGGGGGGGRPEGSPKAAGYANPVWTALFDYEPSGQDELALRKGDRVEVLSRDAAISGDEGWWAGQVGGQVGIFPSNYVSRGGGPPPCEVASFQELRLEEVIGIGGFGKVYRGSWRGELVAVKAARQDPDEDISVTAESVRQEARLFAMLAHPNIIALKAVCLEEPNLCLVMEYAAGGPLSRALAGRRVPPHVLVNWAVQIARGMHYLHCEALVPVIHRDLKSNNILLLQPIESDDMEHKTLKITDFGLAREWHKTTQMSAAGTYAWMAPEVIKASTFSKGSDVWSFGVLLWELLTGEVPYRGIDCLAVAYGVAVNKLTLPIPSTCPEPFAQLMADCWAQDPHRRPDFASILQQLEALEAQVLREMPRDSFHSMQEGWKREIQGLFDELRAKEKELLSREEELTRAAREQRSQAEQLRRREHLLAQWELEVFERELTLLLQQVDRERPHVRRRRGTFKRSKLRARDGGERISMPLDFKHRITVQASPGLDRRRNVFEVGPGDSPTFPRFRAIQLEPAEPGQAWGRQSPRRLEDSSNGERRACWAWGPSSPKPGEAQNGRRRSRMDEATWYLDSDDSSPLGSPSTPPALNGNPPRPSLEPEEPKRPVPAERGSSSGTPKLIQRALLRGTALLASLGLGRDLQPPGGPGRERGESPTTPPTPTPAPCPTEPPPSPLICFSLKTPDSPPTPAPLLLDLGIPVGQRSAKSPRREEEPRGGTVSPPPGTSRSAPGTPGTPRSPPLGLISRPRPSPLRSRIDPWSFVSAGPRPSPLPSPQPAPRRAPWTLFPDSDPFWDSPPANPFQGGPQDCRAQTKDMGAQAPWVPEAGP
Method for CDK5/p25: Compounds of the invention were assayed for activity against a variety of different kinases at Life Technologies™ (Grand Island, N.Y.) using their commercially available Adapta® (for CDK7, CDK9/cyclin T1, and IRAK1 kinases), Z′-Lyte® (for CDK1, CDK2, CDK5/p25, CDK5/p35, JNK1 and JNK2 kinases), and LanthaScreen Eu® (for CDK8, CDK9/cyclin K and MLK3) kinase assay services. Test compounds were tested at 100 nM and 1 μM final concentrations in 1% DMSO against all kinases except CDK7. For CDK7, test compounds were tested at concentrations ranging from 10 μM to 0.514 nM in a series of 3-fold serial dilutions. […] The co-factors used for each kinase in the assays were as follows: CDK1: cyclin B; CDK2: cyclin A; CDK5: p25 or p35 as indicated; CDK7: cyclin H and MNAT1; CDK8: cyclin C; CDK9: cyclin K or cyclin T1 as indicated; IRAK1: Histone H3 (1-20) peptide; JNK1: none required; JNK2: none required; MLK3: none required.

In the case of `CN(C)C/C=C/C(=O)Nc1ccc(C(=O)N[C@H]2CCC[C@@H](Nc3ncc(Cl)c(-c4c[nH]c5ccccc45)n3)C2)cc1F` [Compound 126, N-((1S,3R)-3-(5-chloro-4-(1H-indol-3-yl)pyrimidin-2-ylamino)cyclohexyl)-4-((E)-4-(dimethylamino)but-2-enamido)-3-fluorobenzamide], the half-maximal inhibitory concentration (IC50) (usually the concentration that gives 50% inhibition) was less than 100 nM on CDK7 (setting [1]) and less than 500 nM with Jurkat cells.

Take `CN(C)C/C=C/C(=O)Nc1ccc(CN(C(=O)OC(C)(C)C)[C@H]2CCC[C@@H](Nc3ncc(Cl)c(-c4c[nH]c5ccccc45)n3)C2)cc1` [Compound 127, tert-butyl (1S,3R)-3-(5-chloro-4-(1H-indol-3-yl)pyrimidin-2-ylamino) cyclohexyl(4-((E)-4-(dimethylamino)but-2-enamido)benzyl)carbamate]: the values for the half-maximal inhibitory concentration (IC50) on CDK7 (setting [1]) and in the experiment on Jurkat cells were 100 to 1000 nM and 500 to 5000 nM, respectively.

Regarding `CN(C)C/C=C/C(=O)Nc1ccc(CN[C@H]2CCC[C@@H](Nc3ncc(Cl)c(-c4c[nH]c5ccccc45)n3)C2)cc1` [Compound 129, (E)-N-(4-(((1S,3R)-3-(5-chloro-4-(1H-indol-3-yl)pyrimidin-2-ylamino)cyclohexylamino)methyl)phenyl)-4-(dimethylamino)but-2-enamide], the 50% inhibitory concentration (IC50) was less than 100 nM on CDK7 (setting [1]) and less than 500 nM with Jurkat cells.

On to `C[Si](C)(C)C#CC(=O)Nc1ccc(C(=O)NC23CCCC(Nc4ncc(Cl)c(-c5c[nH]c6ccccc56)n4)(C2)C3)cc1` [Compound 130, N-(5-(5-chloro-4-(1H-indol-3-yl)pyrimidin-2-ylamino)bicyclo[3.1.1]heptan-1-yl)-4-(3-(trimethylsilyl)propiolamido)benzamide], for which the 50% inhibitory concentration (IC50) on CDK7 (setting [1]) was less than 100 nM; with Jurkat cells, less than 500 nM.

For the compound `CN(C/C=C/C(=O)Nc1ccc(C(=O)N[C@H]2CCC[C@@H](Nc3ncc(Cl)c(-c4c[nH]c5ccccc45)n3)C2)cc1)CC(=O)O` [Compound 131, 2-(((E)-4-(4-((1S,3R)-3-(5-chloro-4-(1H-indol-3-yl)pyrimidin-2-ylamino)cyclohexylcarbamoyl)phenylamino)-4-oxobut-2-enyl)(methyl)amino)acetic acid], the IC50 was less than 100 nM at CDK7 (setting [1]) and less than 500 nM with Jurkat cells.

With `C=CC(=O)Nc1ccc(C(=O)N[C@H]2CCC[C@@H](Nc3ncc(Cl)c(-c4c[nH]c5ccccc45)n3)C2)c(N2CCOCC2)c1` [Compound 133, 4-acrylamido-N-((1S,3R)-3-(5-chloro-4-(1H-indol-3-yl)pyrimidin-2-ylamino)cyclohexyl)-2-morpholinobenzamide], the IC50 was 100 to 1000 nM on CDK7 (setting [1]) and less than 500 nM in the experiment with Jurkat cells.

On to `C=CC(=O)Nc1cccc(C(=O)N[C@H]2CC[C@H](Nc3ncc(Cl)c(-c4c[nH]c5ccccc45)n3)CC2)c1` [Compound 135, 3-acrylamido-N-((trans)-4-(5-chloro-4-(1H-indol-3-yl)pyrimidin-2-ylamino)cyclohexyl)benzamide], for which the 50% inhibitory concentration (IC50) at CDK7 (setting [1]) was less than 100 nM; in the experiment with Jurkat cells, less than 500 nM.

With `C=CC(=O)Nc1ccc(C(=O)N[C@H]2CCC[C@@H](Nc3ncc(F)c(-c4c[nH]c5ccccc45)n3)C2)cc1` [Compound 137, 4-acrylamido-N-((1S,3R)-3-(5-fluoro-4-(1H-indol-3-yl)pyrimidin-2-ylamino)cyclohexyl)benzamide], the IC50 at CDK7 (setting [1]) is 100 to 1000 nM; in the experiment with Jurkat cells it was less than 500 nM.

On to `C=CC(=O)Nc1ccc(C(=O)N[C@H]2CCC[C@@H](Nc3ncc(Cl)c(-c4cnn5ccccc45)n3)C2)cc1` [Compound 138, 4-acrylamido-N-((1S,3R)-3-(5-chloro-4-(pyrazolo[1,5-a]pyridin-3-yl)pyrimidin-2-ylamino)cyclohexyl)benzamide], for which the IC50 is less than 100 nM at CDK7 (setting [1]) and less than 500 nM with Jurkat cells.

Turning to `CN(C)C/C=C/C(=O)Nc1ccc(C(=O)N[C@H]2C[C@@H](Nc3ncc(Cl)c(-c4c[nH]c5ccccc45)n3)CC(F)(F)C2)cc1` [Compound 139], the figures for the half-inhibitory concentration (IC50) at CDK7 (setting [1]) and with Jurkat cells were more than 1000 nM and 500 to 5000 nM, respectively.

As for `Cc1nc(C)c(-c2nc(NC3CCCC(NC(=O)c4ccc(NC(=O)/C=C/CN(C)C)cc4)C3)ncc2Cl)s1` (centres unmarked) [Compound 141], the half-maximal inhibitory concentration (IC50) is less than 100 nM on CDK7 (setting [1]) and less than 500 nM in the experiment with Jurkat cells.

As to `C=CC(=O)Nc1ccc(C(=O)NC2CCCC(Nc3ncc(Cl)c(-c4sc(C)nc4C)n3)C2)cc1` (centres unmarked) [Compound 142], the IC50 at CDK7 (setting [1]) is 100 to 1000 nM; with Jurkat cells it was less than 500 nM.

Regarding `Cc1noc(C)c1-c1nc(N[C@@H]2CCC[C@H](NC(=O)c3ccc(NC(=O)/C=C/CN(C)C)cc3)C2)ncc1Cl` [Compound 144], the half-inhibitory concentration (IC50) on CDK7 (setting [1]) was 100 to 1000 nM; in the experiment with Jurkat cells it was less than 500 nM.

In the case of `C=CC(=O)Nc1ccc(C(=O)N[C@H]2CCC[C@@H](Nc3ncc(Cl)c(-c4c(C)noc4C)n3)C2)cc1` [Compound 145], the concentration for half-maximal inhibition (IC50) at CDK7 (setting [1]) is less than 1000 nM; in the experiment on Jurkat cells it was less than 500 nM.

For the compound `C=CC(=O)Nc1ccc(C(=O)N[C@H]2CCC[C@@H](Nc3ncc(C4CC4)c(-c4c[nH]c5ccccc45)n3)C2)cc1` [Compound 146], the half-inhibitory concentration (IC50) at CDK7 (setting [1]) was in the range of 100 to 1000 nM; in the experiment with Jurkat cells, 500 to 5000 nM.

For `C=CC(=O)Nc1ccc(C(=O)N[C@H]2CC[C@@H](Nc3ncc(Cl)c(-c4c[nH]c5ccccc45)n3)CC2)cc1` [Compound 147], the IC50 on CDK7 (setting [1]) is less than 1000 nM; with Jurkat cells, less than 500 nM.

On to `C=CC(=O)Nc1ccc(C(=O)N[C@H]2CCC[C@@H](Nc3ncc(Cl)c(-c4cn(C)c5ccccc45)n3)C2)cc1` [Compound 152], for which the IC50 on CDK7 (setting [1]) was 100 to 1000 nM; in the experiment with Jurkat cells, less than 500 nM.

In the case of `CN(C)C/C=C/C(=O)Nc1ccc(C(=O)N[C@@H]2CCC[C@H](Nc3ncc(Cl)c(-c4c[nH]c5ccccc45)n3)C2)cc1` [compound 101], the IC50 was more than 1000 nM against CDK5/p25; more than 1000 nM on MLK3; 100 to 1000 nM at CDK7 (setting [1]); 100 to 1000 nM on CDK7 (setting [2]); 500 to 5000 nM with Jurkat cells.

Turning to `CN(C)C/C=C/C(=O)Nc1ccc(C(=O)N[C@@H]2CCC[C@@H](Nc3ncc(Cl)c(-c4c[nH]c5ccccc45)n3)C2)cc1` [compound 104], the half-inhibitory concentration (IC50) was more than 1000 nM on CDK5/p25; more than 1000 nM at MLK3; less than 100 nM at CDK7 (setting [1]); less than 100 nM at CDK7 (setting [2]); less than 500 nM in the experiment on Jurkat cells.

On to `CN(C)C/C=C/C(=O)Nc1ccc(C(=O)NC2CCCC(Nc3ncc(Cl)c(-c4c[nH]c5ccccc45)n3)C2)c(F)c1` (centres unmarked) [compound 125], for which the IC50 on CDK7 (setting [1]) is less than 100 nM; in the experiment on Jurkat cells it was less than 500 nM.

Regarding `CN(C)C/C=C/C(=O)Nc1ccc(C(=O)NC2(C)CCCC(Nc3ncc(Cl)c(-c4c[nH]c5ccccc45)n3)C2)cc1` (centres unmarked) [compound 128], the figures for the 50% inhibitory concentration (IC50) on CDK7 (setting [1]) and in the experiment on Jurkat cells were less than 100 nM and less than 500 nM, respectively.

As to `CN(C)C/C=C/C(=O)Nc1cccc(C(=O)NC2CCC(Nc3ncc(Cl)c(-c4c[nH]c5ccccc45)n3)CC2)c1` (centres unmarked) [compound 140], the IC50 on CDK7 (setting [1]) was less than 100 nM; in the experiment with Jurkat cells, less than 500 nM.
